Drawing on ChEMBL document CHEMBL6096657, “Exploring structure-directed immunogenic cytotoxicity of arginine-rich peptides for cytolysis-induced immunotherapy of cancer” (Bioorg Med Chem, 2024), this text covers IC50 and Activity for 6 compounds.

The source made the active and inactive calls. No cut-off for these calls is given here. Where a SMILES comes first, the peptide text is derived from it. Bridges are numbered along the chain shown (N, C = ends).

Series [1] deals with 4T1. Description: Cytotoxicity against mouse 4T1 cells assessed as cell viability by MTT assay. It counts as functional, cell-based.
Series [2] concerns 4T1. Description: Induction of apoptosis in mouse 4T1 cells assessed as increase in caspase-3 activity measured at 30 mins. The series is classed as functional, cell-based.
In series [3] the test system is 4T1. Kind of series: Induction of immunogenic cell death in mouse 4T1 cells assessed as ATP release at 2 to 16 uM measured after 4 hrs. It counts as functional, cell-based. To be noted: dose 2-16 µM.
The test system of series [4] is 4T1. Kind of series: Cytotoxicity against mouse 4T1 cells assessed as cell death rate at 4 uM measured at 15 mins by MTT assay relative to control. The series is classed as functional. The settings on record: 0.25 h. A general note: Tetrazolium dyes change colour on reduction, which living cells bring about.
In series [5] the test system is 4T1. Description: Induction of ROS generation in mouse 4T1 cells 24 hrs by DCFDA-fluorescence based flow cytometry. It counts as functional, cell-based. On the technique in general: Flow cytometry measures light scatter and fluorescence of single cells or particles in a stream.
Series [6] deals with 4T1. Description: Induction of immunogenic cell death in mouse 4T1 cells assessed as increase in CRT translocation to cell surface at 2 to 16 uM. It counts as functional, cell-based. To be noted: dose 2-16 µM.
In series [7] the test system is 4T1. Description: Induction of morphological changes in mouse 4T1 cells at 4 uM by PI staining based confocal microscopic analysis. The series is classed as functional, cell-based.
In series [8] the test system is 4T1. Kind of series: Cytotoxicity against mouse 4T1 cells assessed as cell death rate at 4 uM measured at 30 mins by MTT assay relative to control. The series is classed as functional. The settings on record: 0.5 h.
For series [9], the system named is 4T1. Description: Induction of necrosis in mouse 4T1 cells cocultured with mouse BMDC cells at 6 uM incubated for 4 hrs by flow cytometry analysis. The series is classed as functional, cell-based.
Series [10] concerns 4T1. Description: Induction of immunogenic cell death in mouse 4T1 cells assessed as HMGB1 release at 2 to 16 uM measured after 2 hrs. It counts as functional, cell-based. The settings on record: dose 2-16 µM.
Series [11] deals with 4T1. Description: Induction of immunogenic cell death in mouse 4T1 cells assessed as ATP release at 2 to 16 uM measured after 2 hrs. The settings on record: dose 2-16 µM. It counts as functional, cell-based.
Series [12] concerns 4T1. Kind of series: Induction of apoptosis in mouse 4T1 cells assessed as increase in caspase-3 activity measured at 60 mins. The series is classed as functional, cell-based.
The test system of series [13] is 4T1. Kind of series: Induction of immunogenic cell death in mouse 4T1 cells assessed as HMGB1 release at 4 to 32 uM measured after 2 hrs. The series is classed as functional, cell-based. The settings on record: dose 4-32 µM.
For series [14], the system named is 4T1. Description: Cytotoxicity against mouse 4T1 cells at 8 uM measured after 15 mins by MTT assay. The series is classed as functional, cell-based.
Series [15] has as its system THP-1. Description: Induction of M1 macrophage polarization in human THP-1 cells assessed as increase in IL-1beta level measured after 48 hrs. It counts as functional, cell-based.
In series [16] the test system is 4T1. Kind of series: Cytotoxicity against mouse 4T1 cells assessed as cell death rate at 8 uM by PI staining based confocal microscopic analysis. It counts as functional.
Series [17] is described as follows: Cytotoxicity against mouse BMDC cells. The series is classed as toxicity, cell-based. The settings on record: BMDC cells (bone marrow-derived dendritic cells).
Series [18] concerns 4T1. Kind of series: Cytotoxicity against mouse 4T1 cells. The series is classed as functional, cell-based.
In series [19] the test system is 4T1. Description: Induction of immunogenic cell death in mouse 4T1 cells assessed as ATP release at 4 to 32 uM measured after 4 hrs. The series is classed as functional, cell-based. The settings on record: dose 4-32 µM.
In series [20] the test system is 4T1. Kind of series: Induction of necrosis in mouse 4T1 cells cocultured with mouse BMDC cells at 12 uM incubated for 4 hrs by flow cytometry analysis. The series is classed as functional, cell-based.
In series [21] the test system is 4T1. Kind of series: Antitumor activity against mouse 4T1 cells implanted in mouse assessed as reduction in tumor size. The series is classed as functional, cell-based.
For series [22], the system named is 4T1. Description: Induction of immunogenic cell death in mouse 4T1 cells assessed as ATP release at 4 to 32 uM measured after 2 hrs. The series is classed as functional, cell-based. To be noted: dose 4-32 µM.
For series [23], the system named is 4T1. Kind of series: Cytotoxicity against mouse 4T1 cells assessed as cell death rate at 8 uM measured after 1 hr by MTT assay. It counts as functional.
Series [24] is described as follows: Cytotoxicity against mouse BMDM cells. The series is classed as toxicity, cell-based. To be noted: BMDM cells (bone marrow-derived macrophages).
Series [25] relates to 4T1. Description: Induction of necroptosis in mouse 4T1 cells assessed as increase in cell viability in presence of necrostatin-1 by MTT assay. To be noted: dose 0.625-30 µM. The series is classed as functional, cell-based.
For series [26], the system named is 4T1. Kind of series: Induction of morphological changes in mouse 4T1 cells at 8 uM by PI staining based confocal microscopic analysis. The series is classed as functional, cell-based.
Series [27] deals with 4T1. Kind of series: Induction of apoptosis in mouse 4T1 cells assessed as increase in late necrotic cell death incubated for 24 hrs by Annexin V/FITC staining based flow cytometry analysis. The series is classed as functional.
The subject of series [28] is 4T1. Description: Induction of immunogenic cell death in mouse 4T1 cells assessed as increase in CRT translocation to cell surface at 4 to 32 uM. The series is classed as functional, cell-based. The settings on record: dose 4-32 µM.
The test system of series [29] is 4T1. Kind of series: Induction of necrosis in mouse 4T1 cells cocultured with mouse BMDC cells at 15 uM incubated for 4 hrs by flow cytometry analysis. The series is classed as functional, cell-based.
Series [30] concerns 4T1. Kind of series: Induction of morphological changes in mouse 4T1 cells at 10 uM by PI staining based confocal microscopic analysis. The series is classed as functional, cell-based.
Series [31] concerns 4T1. Kind of series: Induction of apoptosis in mouse 4T1 cells assessed as cell death in presence of Ac-DEVD-CHO. The series is classed as functional, cell-based.
Series [32] has as its system 4T1. Description: Cytotoxicity against mouse 4T1 cells assessed as cell death rate at 4 uM measured after 2 hrs by MTT assay. The series is classed as functional.
Series [33] deals with 4T1. Kind of series: Cytotoxicity against mouse 4T1 cells assessed as cell death rate at 4 uM measured after 15 mins by MTT assay. It counts as functional, cell-based.
For series [34], the system named is 4T1. Description: Induction of apoptosis in mouse 4T1 cells assessed as early apoptotic cell incubated for 24 hrs by Annexin V/FITC staining based flow cytometry analysis. It counts as functional.
For series [35], the system named is 4T1. Kind of series: Induction of immunogenic cell death in mouse 4T1 cells assessed as HMGB1 release at 4 to 32 uM measured after 4 hrs. It counts as functional, cell-based. To be noted: dose 4-32 µM.
Series [36] has as its system 4T1. Kind of series: Cytotoxicity against mouse 4T1 cells assessed as cell death rate at 10 uM by PI staining based confocal microscopic analysis. The series is classed as functional.

What is called IC50 is the concentration that inhibits the measured activity by half.

In the case of `CC(=O)N[C@@H](CC(C)C)C(=O)N[C@@H](CC(C)C)C(=O)N[C@@H](CC(C)C)C(=O)N[C@@H](CC(C)C)C(=O)N[C@H]1CSSC[C@@H](C(N)=O)NC(=O)[C@H](CCCNC(=N)N)NC(=O)[C@H](CCCNC(=N)N)NC(=O)[C@H](CCCNC(=N)N)NC(=O)[C@H](CCCNC(=N)N)NC(=O)[C@H](CCCNC(=N)N)NC(=O)[C@H](CCCNC(=N)N)NC(=O)[C@H](CCCNC(=N)N)NC(=O)[C@H](CCCNC(=N)N)NC1=O` (Ac-LLLLCRRRRRRRRC-NH2; disulfide 5-14), the IC50 in series [1] was found to be 9.3 µM.
Same read-out and setting: the same measure for `N=C(N)NCCC[C@@H]1NC(=O)[C@H](CCCNC(=N)N)NC(=O)[C@H](CCCNC(=N)N)NC(=O)[C@H](CCCNC(=N)N)NC(=O)[C@H](CCCNC(=N)N)NC(=O)[C@H](CCCNC(=N)N)NC(=O)[C@H](CCCNC(=N)N)NC(=O)[C@H](CCCNC(=N)N)NC(=O)[C@@H](NC(=O)[C@H](Cc2ccccc2)NC(=O)[C@H](Cc2ccccc2)NC(=O)[C@H](Cc2ccccc2)NC(=O)[C@@H](N)Cc2ccccc2)CSSC[C@@H](C(=O)O)NC1=O` (H-FFFFCRRRRRRRRC-OH; disulfide 5-14): 8.8 µM; for `CC(=O)N[C@H]1CSSC[C@@H](C(=O)N[C@@H](CC(C)C)C(=O)N[C@@H](Cc2ccccc2)C(=O)N[C@@H](Cc2c[nH]c3ccccc23)C(=O)N[C@@H](Cc2ccccc2)C(N)=O)NC(=O)[C@H](CCCNC(=N)N)NC(=O)[C@H](CCCNC(=N)N)NC(=O)[C@H](CCCNC(=N)N)NC(=O)[C@H](CCCNC(=N)N)NC(=O)[C@H](CCCNC(=N)N)NC(=O)[C@H](CCCNC(=N)N)NC(=O)[C@H](CCCNC(=N)N)NC(=O)[C@H](CCCNC(=N)N)NC1=O` (Ac-CRRRRRRRRCLFWF-NH2; disulfide 1-10): 8.5 µM.
With `CC(=O)N[C@@H](CCCNC(=N)N)C(=O)N[C@@H](CC(C)C)C(=O)N[C@@H](CC(C)C)C(=O)N[C@@H](CCCNC(=N)N)C(=O)N[C@@H](CC(C)C)C(=O)N[C@@H](CC(C)C)C(=O)N[C@@H](CCCNC(=N)N)C(=O)N[C@@H](CCCNC(=N)N)C(=O)N[C@@H](CC(C)C)C(=O)N[C@@H](CC(C)C)C(=O)N[C@@H](CCCNC(=N)N)C(=O)N[C@@H](CC(C)C)C(=O)N[C@@H](CC(C)C)C(=O)N[C@@H](CCCNC(=N)N)C(N)=O` (Ac-RLLRLLRRLLRLLR-NH2), in series [1], the IC50 is 3.3 µM. In addition, the outcome in series [2], in series [5], in series [7] and in series [12] was inactive. Also, the result in [3], in series [6], in series [9], in series [10] and in series [11] was Active. For the same compound, the Activity in series [4] is given as 30%; in series [8], 50%.
Turning to `CC(=O)N[C@@H](Cc1ccccc1)C(=O)N[C@@H](Cc1c[nH]c2ccccc12)C(=O)N[C@@H](Cc1ccccc1)C(=O)N[C@@H](CC(C)C)C(=O)N[C@H]1CSSC[C@@H](C(N)=O)NC(=O)[C@H](CCCNC(=N)N)NC(=O)[C@H](CCCNC(=N)N)NC(=O)[C@H](CCCNC(=N)N)NC(=O)[C@H](CCCNC(=N)N)NC(=O)[C@H](CCCNC(=N)N)NC(=O)[C@H](CCCNC(=N)N)NC(=O)[C@H](CCCNC(=N)N)NC(=O)[C@H](CCCNC(=N)N)NC1=O` (Ac-FWFLCRRRRRRRRC-NH2; disulfide 5-14), the half-maximal inhibitory concentration (IC50) worked out at 7.5 µM in series [1], 7.8 µM in series [17], 7.5 µM in series [18] and 10.3 µM in [24]. Besides, the outcome in series [13], in [14], in [15], in [16], in series [5] and in series [19] was Active. The result in [20], in series [21], in series [22], in series [26], in series [27] and in series [28] was Active. The outcome in series [2] and in series [12] was inactive. Further, the figures for the Activity in [23] and in series [25] were 50% and “Dose-dependent-effect”, respectively.
Take `CC(=O)N[C@@H](CCCNC(=N)N)C(=O)N[C@@H](CC(C)C)C(=O)N[C@@H](CC(C)C)C(=O)N[C@@H](CCCNC(=N)N)C(=O)N[C@@H](CC(C)C)C(=O)N[C@@H](CC(C)C)C(=O)N[C@@H](CCCNC(=N)N)C(=O)N[C@@H](CC(C)C)C(=O)N[C@@H](CCCNC(=N)N)C(=O)N[C@@H](CCCNC(=N)N)C(=O)N[C@@H](CC(C)C)C(=O)N[C@@H](CC(C)C)C(=O)N[C@@H](CCCNC(=N)N)C(=O)N[C@@H](CC(C)C)C(N)=O` (Ac-RLLRLLRLRRLLRL-NH2): in [1], the half-inhibitory concentration (IC50) came out at 9.3 µM. Besides, the outcome in series [13], in series [2], in series [5], in [19], in [29] and in [31] was Active. The outcome in series [22], in [33], in [34], in series [12], in series [35] and in [36] was Active. The result in series [30] was inactive. The Activity in series [32] was found to be 50%.
